Data taken from PMC6737539 (Journal of medicinal chemistry, 2019).
Like-named read-outs stand apart in the source and are kept apart here.

What was measured:
[1] = Liver microsomal metabolic stability, rat; assay type: in vitro ADME; settings: 10 μM, 30 min
serum RBP4 = settings: mice; cited from earlier work
[2] = Liver microsomal metabolic stability, mouse; assay type: in vitro ADME; settings: 10 μM, 30 min
[3] = Liver microsomal metabolic stability, human; assay type: in vitro ADME; settings: 10 μM, 30 min
RBP4 = RBP4 (Homo sapiens, UniProt P02753); assay: RBP4 scintillation proximity assay; assay type: binding; settings: for binding to RBP4 (competition binding): purified human RBP4, 10 nM 3H-retinol radioligand
[4] = lipophilic ligand efficiency: RBP4 SPA pIC50 − cLog P

| SMILES | LLE (RBP4; [4]) | binding to RBP4 (competition binding) (RBP4) | other results |
| --- | --- | --- | --- |
| O=C(O)c1ccccc1NC(=O)N1CCC(c2ccccc2C(F)(F)F)CC1 [Compound 3, reference compound] | – | – | Microsomal Stability (% remaining) RLM [1]: 85 % remaining |
| Cc1cc(C(=O)O)nc(N2C[C@H]3CC(c4ccccc4C(F)(F)F)C[C@H]3C2)n1 (stereo partly shown) [Compound 5] | – | – | serum RBP4 lowering (serum RBP4): 90% |
| Cn1nc(C(=O)N2CCC(c3ccccc3C(F)(F)F)CC2)c2ccccc21 [Compound 12, (1-Methyl-1H-indazol-3-yl)(4-(2-(trifluoromethyl)phenyl)-piperidin-1-yl)methanone] | 4.56 | – | Microsomal Stability (% remaining) MLM [2]: 0.2 % remaining; Microsomal Stability (% remaining) HLM [3]: 0.7 % remaining; Microsomal Stability (% remaining) RLM [1]: 0.0 % remaining |
| COc1ccc2[nH]nc(C(=O)N3CCC(c4ccccc4C(F)(F)F)CC3)c2c1 [Compound 17, (5-Methoxy-1H-indazol-3-yl)(4-(2-(trifluoromethyl)phenyl)-piperidin-1-yl)methanone] | 3.01 | – | – |
| CC(C)n1nc(C(=O)N2CCC(c3ccccc3C(F)(F)F)CC2)c2ccc(F)cc21 [Compound 20, (6-Fluoro-1-isopropyl-1H-indazol-3-yl)(4-(2-(trifluoromethyl)-phenyl)piperidin-1-yl)methanone] | – | – | LLE (RBP4): 2.03 |

Now from value to compound, other results behind:

| LLE (RBP4; [4]) | binding to RBP4 (competition binding) (RBP4) | SMILES | other results |
| --- | --- | --- | --- |
| 5.89 | – | N#Cc1ccc2nnc(C(=O)N3CCC(c4c(F)cccc4C(F)(F)F)CC3)n2c1 [Compound 64, 3-(4-(2-Fluoro-6-(trifluoromethyl)phenyl)piperidine-1-carbonyl)-[1,2,4]triazolo[4,3-a]pyridine-6-carbonitrile] | – |
| – | weak RBP4 ligands | CC/C=C\C/C=C\C/C=C\C/C=C\C/C=C\C/C=C\CCC(=O)O [docosahexaenoic acid, reference compound] | – |
| – | weak RBP4 ligands | CCCCC/C=C\C/C=C\CCCCCCCC(=O)O [linoleic acid, reference compound] | – |
| – | weak RBP4 ligands | CCCCCCCC/C=C\CCCCCCCC(=O)O [oleic acid, reference compound] | – |
| – | weak RBP4 ligands | CCCCCCCCCCCCCCCC(=O)O [palmitic acid, reference compound] | – |
